Data on 17 compounds can be found in patent US7812022B2 (GlaxoSmithKline LLC, priority 2004, dated 2010).

Test [1] relates to BT474 and HN5 tumor cell lines. Kind of test: Methylene blue growth inhibition assay (cellular Method A). It is filed as cell-based, Human. The settings on record: Homo sapiens, BT-474, 72 h, 3 days, read-out: Activity (Method): growth inhibition IC50 class. In short, it runs like this:
(§1)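 Colo205, BT474 and HN5 cells in DMEM/10% FBS (BT474 10,000, HN5 3,000 cells/well) treated next day with compound in DMEM, 0.3% final DMSO, for 3 days at 37° C. Biomass stained with methylene blue, solubilized, read at OD 620; IC50 interpolated by nonlinear regression from % inhibition versus vehicle.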

A further test addresses T1, ErbB2 or EGFR.
T1 construct: enzymes purified from a baculovirus expression system; Reagent production was conducted essentially as described in Brignola, P. S., et al, (2002) J. Biol. Chem. 277(2): 1576-1585
Kind of test: ErbB family substrate phosphorylation enzyme assay (HTRF), Method A or Method B. It is filed as biochemical. In short, it runs like this: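 Baculovirus-expressed EGFR or ErbB2 (0.8 or 10 nM in enzyme mix) phosphorylates biotinylated Peptide C with 20 µM ATP and 0.8 µM peptide (substrate-mix levels), MnCl2, pH 7.5. Reaction ran 90 min at 20 °C with EDTA stop and HTRF anti-phosphotyrosine read. Method A: enzyme added last; Method B: 1 h enzyme–compound preincubation.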

A further test deals with Colo205 tumor cell lines. Kind of test: Methylene blue growth inhibition assay (cellular Method A), Colo205. The test is classed as cell-based, Human. Particulars: Homo sapiens, COLO 205, 72 h, 3 days, read-out: Activity (Method): growth inhibition IC50 class. Put shortly:
as §1

Setting [2] is: Method B: enzyme mix pre-incubated with compound 1 hour at 20° C., started with substrate mix.
Where [3] appears, read: Method A: substrate mix added first, reaction started with enzyme mix.

A value given as a limit tells only on which side of the number the result lay.

Take `O=C(Nc1cccc(-c2nn3ccccc3c2-c2ccnc(Nc3cccc(S(=O)(=O)CCO)c3)n2)c1)c1c(F)cccc1F` [Example 58, 2,6-Difluoro-N-(3-{3-[2-({3-[(2-hydroxyethyl)sulfonyl]-phenyl}amino)-4-pyrimidinyl]pyrazolo[1,5-a]pyridin-2-yl}phenyl)benzamide]: the IC50 in test [1] is less than 100 nM; in the test with Colo205 tumor cell lines, more than 1000 nM. Further, the “Activity (Method): pIC50 class against ErbB2 or EGFR” value (“Activity (Method): pIC50 class” for short) on ErbB2 or EGFR (setting [2]) is reported as “+++ (B) (at least one pIC50 measurement of greater than 7 against either ErbB2 or EGFR)”.
As to `CN(C)CCOc1cccc(Nc2nccc(-c3c(-c4cccc(NC(=O)c5c(F)cccc5F)c4)nn4ccccc34)n2)c1` [Example 61, N-[3-(3-{2-[(3-{[2-(Dimethylamino)ethyl]oxy}-phenyl)amino]-4-pyrimidinyl}pyrazolo[1,5-a]pyridin-2-yl)phenyl]-2,6-difluorobenzamide], the IC50 in test [1] is less than 100 nM; in the test with Colo205 tumor cell lines, 100 to 1000 nM. Moreover, the “Activity (Method): pIC50 class” value on ErbB2 or EGFR (setting [2]) is reported as “+++ (B) (at least one pIC50 measurement of greater than 7 against either ErbB2 or EGFR)”.
The matching figures for `CN(C)CC(=O)Nc1cccc(Nc2nccc(-c3c(-c4cccc(NC(=O)c5c(F)cccc5F)c4)nn4ccccc34)n2)c1` [Example 110, N-(3-{3-[2-({3-[(N,N-dimethylglycyl)amino]phenyl}-amino)-4-pyrimidinyl]pyrazolo[1,5-a]pyridin-2-yl}phenyl)-2,6-difluorobenzamide]: 100 to 1000 nM, 100 to 1000 nM and “+++ (B) (at least one pIC50 measurement of greater than 7 against either ErbB2 or EGFR)”.
Take `COc1ccc(Nc2nccc(-c3c(-c4cccc(NC(=O)c5c(F)cccc5F)c4)nn4ccccc34)n2)cc1OCCN(C)C` [Example 167, N-{3-[3-(2-{[3-{[2-(Dimethylamino)ethyl]oxy}-4-(methyloxy)phenyl]amino}-4-pyrimidinyl)pyrazolo[1,5-a]pyridin-2-yl]phenyl}-2,6-difluorobenzamide]: the IC50 in test [1] was less than 100 nM; with Colo205 tumor cell lines, 100 to 1000 nM. The “Activity (Method): pIC50 class” value at ErbB2 or EGFR (setting [2]) is reported as “+++ (B) (at least one pIC50 measurement of greater than 7 against either ErbB2 or EGFR)”.
Regarding `O=C(Nc1cccc(-c2nn3ccccc3c2-c2ccnc(Nc3cccc(OCCN4CCCC4)c3)n2)c1)c1c(F)cccc1F` [Example 136, 2,6-Difluoro-N-[3-(3-{2-[(3-{[2-(1-pyrrolidinyl)ethyl]oxy}phenyl)amino]-4-pyrimidinyl}pyrazolo[1,5-a]pyridin-2-yl)phenyl]benzamide], the IC50 in test [1] is less than 100 nM; in the test on Colo205 tumor cell lines, 100 to 1000 nM. Moreover, the “Activity (Method): pIC50 class” value at ErbB2 or EGFR (setting [2]) is on record as “+++ (B) (at least one pIC50 measurement of greater than 7 against either ErbB2 or EGFR)”.
For `O=C(Nc1cccc(-c2nn3ccccc3c2-c2ccnc(Nc3ccc(O)c(Cl)c3)n2)c1)c1c(F)cccc1F` [Example 86, N-[3-(3-{2-[(3-Chloro-4-hydroxyphenyl)amino]-4-pyrimidinyl}pyrazolo[1,5-a]pyridin-2-yl)phenyl]-2,6-difluorobenzamide], the results for the IC50 (in test [1]; in the test on Colo205 tumor cell lines) were less than 100 nM and more than 1000 nM, respectively. Also, on ErbB2 or EGFR (setting [3]), the “Activity (Method): pIC50 class” value was “+++ (A) (at least one pIC50 measurement of greater than 7 against either ErbB2 or EGFR)”.
In the same order, the values of `COc1cccc(C(=O)Nc2cccc(-c3nn4ccccc4c3-c3ccnc(Nc4ccc5c(c4)OCCO5)n3)c2)c1` [Example 5, N-(3-{3-[2-(2,3-Dihydro-benzo[1,4]dioxin-6-ylamino)-pyrimidin-4-yl]-pyrazolo[1,5]-pyridin-2-yl}-phenyl)-3-methoxy-benzamide] are 100 to 1000 nM, more than 1000 nM and “+++ (A) (at least one pIC50 measurement of greater than 7 against either ErbB2 or EGFR)”.
For the compound `CN1CCc2ccc(Nc3nccc(-c4c(-c5cccc(NC(=O)c6c(F)cccc6F)c5)nn5ccccc45)n3)cc2C1` [Example 179, 2,6-Difluoro-N-[3-(3-{2-[(2-methyl-1,2,3,4-tetrahydro-7-isoquinolinyl)amino]-4-pyrimidinyl}pyrazolo[1,5-a]pyridin-2-yl)phenyl]benzamide], the IC50 was less than 100 nM in test [1] and 100 to 1000 nM in the test on Colo205 tumor cell lines. In addition, the “Activity (Method): pIC50 class” value on ErbB2 or EGFR (setting [2]) was “+++ (B) (at least one pIC50 measurement of greater than 7 against either ErbB2 or EGFR)”.
For `O=C(Nc1ccccc1)Nc1cccc(-c2nn3ccccc3c2-c2ccnc(Nc3ccc4c(c3)OCCO4)n2)c1` [Example 1, 1-(3-{3-[2-(2,3-Dihydro-benzo[1,4]dioxin-6-ylamino)-pyrimidin-4-yl]-pyrazolo[1,5-]pyridin-2-yl}-phenyl)-3-phenyl-urea], the IC50 (in test [1]; with Colo205 tumor cell lines) was more than 1000 nM in each case. Further, the “Activity (Method): pIC50 class” value on ErbB2 or EGFR (setting [3]) is given as “++ (A) (at least one pIC50 measurement greater than 6 against either ErbB2 or EGFR but no measurement greater than pIC50 of 7)”.
As for `Cc1ccc(F)cc1C(=O)Nc1cccc(-c2nn3ccccc3c2-c2ccnc(Nc3cccc(F)c3)n2)c1` [Example 83, 5-Fluoro-N-[3-(3-{2-[(3-fluorophenyl)amino]-4-pyrimidinyl}pyrazolo[1,5-a]pyridin-2-yl)phenyl]-2-methylbenzamide], the IC50 in test [1] was 100 to 1000 nM; in the test with Colo205 tumor cell lines, more than 1000 nM. Besides, the “Activity (Method): pIC50 class” value on ErbB2 or EGFR (setting [3]) is given as “++ (A) (at least one pIC50 measurement greater than 6 against either ErbB2 or EGFR but no measurement greater than pIC50 of 7)”.
`O=C1COc2cc(Nc3nccc(-c4c(-c5cccc(NC(=O)c6c(F)cccc6F)c5)nn5ccccc45)n3)ccc2N1` [Example 200, 2,6-Difluoro-N-[3-(3-{2-[(3-oxo-3,4-dihydro-2H-1,4-benzoxazin-7-yl)amino]-4-pyrimidinyl}pyrazolo[1,5-a]pyridin-2-yl)phenyl]benzamide]: the values for the half-inhibitory concentration (IC50) (in test [1]; in the test with Colo205 tumor cell lines) were less than 100 nM and 100 to 1000 nM, respectively. In addition, the “Activity (Method): pIC50 class” value at ErbB2 or EGFR (setting [2]) is reported as “+++ (B) (at least one pIC50 measurement of greater than 7 against either ErbB2 or EGFR)”.
Take `CN1CCN(CCOc2ccc(Nc3nccc(-c4c(-c5cccc(NC(=O)c6c(F)cccc6F)c5)nn5ccccc45)n3)cc2)CC1` [Example 106, 2,6-Difluoro-N-[3-(3-{2-[(4-{[2-(4-methyl-1-piperazinyl)ethyl]oxy}phenyl)amino]-4-pyrimidinyl}pyrazolo[1,5-a]pyridin-2-yl)phenyl]benzamide]: the IC50 in test [1] is less than 100 nM; in the test with Colo205 tumor cell lines, 100 to 1000 nM. At ErbB2 or EGFR (setting [3]), the “Activity (Method): pIC50 class” value is on record as “+++ (A) (at least one pIC50 measurement of greater than 7 against either ErbB2 or EGFR)”.
With `O=C(Nc1cccc(-c2nn3ccccc3c2-c2ccnc(Nc3ccc(N4CCOCC4)cc3)n2)c1)c1cc(F)ccc1F` [Example 45, 2,5-Difluoro-N-{3-[3-(2-{[4-(4-morpholinyl)phenyl]amino}-4-pyrimidinyl)pyrazolo[1,5-a]pyridin-2-yl]phenyl}benzamide], the IC50 is less than 100 nM in test [1] and 100 to 1000 nM in the test with Colo205 tumor cell lines. In addition, the “Activity (Method): pIC50 class” value at ErbB2 or EGFR (setting [3]) is listed as “+++ (A) (at least one pIC50 measurement of greater than 7 against either ErbB2 or EGFR)”.
`COC(=O)CCCOc1ccc(Nc2nccc(-c3c(-c4cccc(NC(=O)c5c(F)cccc5F)c4)nn4ccccc34)n2)cc1Cl` [Example 162, Methyl 4-{[2-chloro-4-({4-[2-(3-{[(2,6-difluorophenyl)carbonyl]-amino}phenyl)pyrazolo[1,5-a]pyridin-3-yl]-2-pyrimidinyl}amino)phenyl]oxy}-butanoate]: the IC50 (in test [1]; with Colo205 tumor cell lines) was 100 to 1000 nM in each case. On ErbB2 or EGFR (setting [2]), the “Activity (Method): pIC50 class” value is “++ (B) (at least one pIC50 measurement greater than 6 against either ErbB2 or EGFR but no measurement greater than pIC50 of 7)”.
As to `NC1CCc2ccc(Nc3nccc(-c4c(-c5cccc(NC(=O)c6c(F)cccc6F)c5)nn5ccccc45)n3)cc2C1` (stereo not drawn) [Example 174, N-[3-(3-{2-[(7-Amino-5,6,7,8-tetrahydro-2-naphthalenyl)amino]-4-pyrimidinyl}pyrazolo[1,5-g]pyridin-2-yl)phenyl]-2,6-difluorobenzamidedifluorobenzamide], the IC50 is less than 100 nM in test [1] and 100 to 1000 nM with Colo205 tumor cell lines. Besides, at ErbB2 or EGFR (setting [2]), the “Activity (Method): pIC50 class” value is “+++ (B) (at least one pIC50 measurement of greater than 7 against either ErbB2 or EGFR)”.
For `O=C(Nc1cccc(-c2nn3ccccc3c2-c2ccnc(Nc3cccc(F)c3)n2)c1)c1cc(F)ccc1Cl` [Example 11, 2-Chloro-5-fluoro-N-(3-{3-[2-(3-fluoro-phenylamino)-pyrimidin-4-yl]-pyrazolo[1,5-a]pyridin-2-yl}-phenyl)-benzamide], the IC50 in test [1] was 100 to 1000 nM; in the test on Colo205 tumor cell lines, more than 1000 nM. Moreover, the “Activity (Method): pIC50 class” value on ErbB2 or EGFR (setting [2]) is listed as “+++ (B) (at least one pIC50 measurement of greater than 7 against either ErbB2 or EGFR)”.
For the compound `O=C(Nc1cccc(-c2nn3ccccc3c2-c2ccnc(Nc3ccc(Cc4ccncc4)cc3)n2)c1)c1c(F)cccc1F` [Example 94], the results for the IC50 (in test [1]; with Colo205 tumor cell lines) were less than 100 nM and more than 1000 nM, respectively. Moreover, the “Activity (Method): pIC50 class” value on ErbB2 or EGFR (setting [3]) is reported as “+++ (A) (at least one pIC50 measurement of greater than 7 against either ErbB2 or EGFR)”.

In general, IC50 refers to the concentration needed to halve the response being measured.
